Experimental data: patent US10617693B2, “Methods of treating and/or preventing actinic keratosis” (Athenex, Inc., priority 2017, dated 2020)

Tested on: subjects with AK on the face or scalp
Experiment: Phase 2a study KX01-AK-002: local skin reactions (grade 0 not present to 4 worst) and adverse events, 0.5 mg KX-01 on 25 cm^2
Type: in vivo, human
Text: An ongoing Phase 2a, open-label, multicenter, activity and safety study of KX-01 administered topically in subjects with AK on the face or scalp is described herein. […] Secondary objectives are to assess the activity of KX-01 administered topically during Days 1-57 based on reduction of AK lesion counts from baseline, assess the safety and tolerability and pharmacokinetics, and contrast the dose regimens (5-day treatment with 3-day treatment) in terms of activity and safety in subjects with AK on the face or scalp. This uncontrolled, nonrandomized trial is being conducted at 16 investigational sites in the United States. Enrollment is sequential for 2 cohorts of approximately 80 subjects each. Enrollment is closed for Cohort 1 and ongoing for Cohort 2. The two treatment cohorts are summarized below: • Cohort 1: 0.5 mg KX-01 administered topically to a contiguous treatment area of 25 cm^2 with 4-8 clinically typical AK lesions for 5 consecutive days • Cohort 2: 0.5 mg KX-01 administered topically to a contiguous treatment area of 25 cm^2 with 4-8 clinically typical AK lesions for 3 consecutive days
0.5 mg KX-01 is administered topically to an area of 25 cm^2 on the face or scalp by site staff on treatment days. […] AK lesion counts are recorded at baseline, days 8, 15, 29, and 57. […] Standardized photography of treatment area is performed at baseline, day 8 and day 57. Plasma samples are being collected at preplanned time points on days 1 and 5 for Cohort 1, and on days 1 and 3 for Cohort 2.
Absence or presence of hyperpigmentation, hypopigmentation and scarring are also assessed. Application site reactions not classified as LSRs are reported as AEs. […] LSRs and AEs are reported separately. All LSRs, pigmentation, and scarring in the treatment area will be followed to resolution or stabilization.
The range of possible composite scores is 0-24.
The Phase 2a trial described in Example 2a was completed with 84 eligible subjects enrolled in each of two cohorts: one cohort was subjected to the treatment for 5 consecutive days, and the other cohort was subjected to the treatment for 3 consecutive days. The results are described below and in FIG. 5.

[1] = Cohort 1 (5-day), 67 subjects with day 57 visit

O=C(Cc1ccc(-c2ccc(OCCN3CCOCC3)cc2)cn1)NCc1ccccc1 [KX-01]
Three: Subjects with vesiculation/pustulation [1]
20/67: Erythema grade 1, n/N subjects (Day 2, Cohort 1 (5-day))
64/67: Crusting grade 0, n/N subjects (Day 2, Cohort 1 (5-day))
Seven: Subjects reporting TEAEs considered related to KX-01 (Cohort 1 (5-day), N=82)
2/67: Crusting grade 1, n/N subjects (Day 2, Cohort 1 (5-day)) | Flaking/Scaling grade 3, n/N subjects (Day 3, Cohort 1 (5-day))
55/67: Flaking/Scaling grade 0, n/N subjects (Day 1, Cohort 1 (5-day))
3: Number of SAEs (Cohort 1 (5-day), in 2 subjects, none considered related to study drug)
24/67: Erythema grade 1, n/N subjects (Day 3, Cohort 1 (5-day))
8: Subjects whose LSRs had not returned to baseline at day 57 (Cohort 1 (5-day), of 60 subjects with LSRs)
56/67: Erythema grade 0, n/N subjects (Day 1, Cohort 1 (5-day))
32/67: Erythema grade 0, n/N subjects (Day 3, Cohort 1 (5-day))
63/67: Crusting grade 0, n/N subjects (Day 3, Cohort 1 (5-day))
51/67: Flaking/Scaling grade 0, n/N subjects (Day 2, Cohort 1 (5-day))
6: Cases of application site reaction (Cohort 1 (5-day), N=82, mild tenderness, stinging, pruritus)
12: Number of TEAEs considered related to KX-01 (Cohort 1 (5-day), N=82)
14/67: Flaking/Scaling grade 1, n/N subjects (Day 3, Cohort 1 (5-day))
12/67: Flaking/Scaling grade 1, n/N subjects (Day 1, Cohort 1 (5-day))
1/67: Crusting grade 2, n/N subjects (Day 2, Cohort 1 (5-day)) | Flaking/Scaling grade 2, n/N subjects (Day 2, Cohort 1 (5-day)) | Crusting grade 2, n/N subjects (Day 3, Cohort 1 (5-day)) | Erosion/Ulceration grade 1, n/N subjects (Day 3, Cohort 1 (5-day)) | Erythema grade 3, n/N subjects (Day 3, Cohort 1 (5-day))
67/67: Erosion/Ulceration grade 0, n/N subjects (Day 1, Cohort 1 (5-day)) | Swelling grade 0, n/N subjects (Day 1, Cohort 1 (5-day)) | Vesiculation/Pustulation grade 0, n/N subjects (Day 1, Cohort 1 (5-day)) | Erosion/Ulceration grade 0, n/N subjects (Day 2, Cohort 1 (5-day)) | Swelling grade 0, n/N subjects (Day 2, Cohort 1 (5-day)) | Vesiculation/Pustulation grade 0, n/N subjects (Day 2, Cohort 1 (5-day)) | Swelling grade 0, n/N subjects (Day 3, Cohort 1 (5-day))
7: Subjects with no LSR in the treatment area throughout the study [1]
3/67: Erythema grade 2, n/N subjects (Day 2, Cohort 1 (5-day)) | Crusting grade 1, n/N subjects (Day 3, Cohort 1 (5-day))
54: Total number of TEAEs (Cohort 1 (5-day), N=82)
5/67: Crusting grade 1, n/N subjects (Day 1, Cohort 1 (5-day)) | Flaking/Scaling grade 2, n/N subjects (Day 3, Cohort 1 (5-day))
46/67: Flaking/Scaling grade 0, n/N subjects (Day 3, Cohort 1 (5-day))
44/67: Erythema grade 0, n/N subjects (Day 2, Cohort 1 (5-day))
11/67: Erythema grade 1, n/N subjects (Day 1, Cohort 1 (5-day))
0: Crusting grade 2, n/N subjects (Day 1, Cohort 1 (5-day)) | Crusting grade 3, n/N subjects (Day 1, Cohort 1 (5-day)) | Crusting grade 4, n/N subjects (Day 1, Cohort 1 (5-day)) | Erosion/Ulceration grade 1, n/N subjects (Day 1, Cohort 1 (5-day)) | Erosion/Ulceration grade 2, n/N subjects (Day 1, Cohort 1 (5-day)) | Erosion/Ulceration grade 3, n/N subjects (Day 1, Cohort 1 (5-day)) | Erosion/Ulceration grade 4, n/N subjects (Day 1, Cohort 1 (5-day)) | Erythema grade 2, n/N subjects (Day 1, Cohort 1 (5-day)) | Erythema grade 3, n/N subjects (Day 1, Cohort 1 (5-day)) | Erythema grade 4, n/N subjects (Day 1, Cohort 1 (5-day)) | Flaking/Scaling grade 2, n/N subjects (Day 1, Cohort 1 (5-day)) | Flaking/Scaling grade 3, n/N subjects (Day 1, Cohort 1 (5-day)) | Flaking/Scaling grade 4, n/N subjects (Day 1, Cohort 1 (5-day)) | Swelling grade 1, n/N subjects (Day 1, Cohort 1 (5-day)) | Swelling grade 2, n/N subjects (Day 1, Cohort 1 (5-day)) | Swelling grade 3, n/N subjects (Day 1, Cohort 1 (5-day)) | Swelling grade 4, n/N subjects (Day 1, Cohort 1 (5-day)) | Vesiculation/Pustulation grade 1, n/N subjects (Day 1, Cohort 1 (5-day)) | Vesiculation/Pustulation grade 2, n/N subjects (Day 1, Cohort 1 (5-day)) | Vesiculation/Pustulation grade 3, n/N subjects (Day 1, Cohort 1 (5-day)) | Vesiculation/Pustulation grade 4, n/N subjects (Day 1, Cohort 1 (5-day)) | Crusting grade 3, n/N subjects (Day 2, Cohort 1 (5-day)) | Crusting grade 4, n/N subjects (Day 2, Cohort 1 (5-day)) | Erosion/Ulceration grade 1, n/N subjects (Day 2, Cohort 1 (5-day)) | Erosion/Ulceration grade 2, n/N subjects (Day 2, Cohort 1 (5-day)) | Erosion/Ulceration grade 3, n/N subjects (Day 2, Cohort 1 (5-day)) | Erosion/Ulceration grade 4, n/N subjects (Day 2, Cohort 1 (5-day)) | Erythema grade 3, n/N subjects (Day 2, Cohort 1 (5-day)) | Erythema grade 4, n/N subjects (Day 2, Cohort 1 (5-day)) | Flaking/Scaling grade 3, n/N subjects (Day 2, Cohort 1 (5-day)) | Flaking/Scaling grade 4, n/N subjects (Day 2, Cohort 1 (5-day)) | Swelling grade 1, n/N subjects (Day 2, Cohort 1 (5-day)) | Swelling grade 2, n/N subjects (Day 2, Cohort 1 (5-day)) | Swelling grade 3, n/N subjects (Day 2, Cohort 1 (5-day)) | Swelling grade 4, n/N subjects (Day 2, Cohort 1 (5-day)) | Vesiculation/Pustulation grade 1, n/N subjects (Day 2, Cohort 1 (5-day)) | Vesiculation/Pustulation grade 2, n/N subjects (Day 2, Cohort 1 (5-day)) | Vesiculation/Pustulation grade 3, n/N subjects (Day 2, Cohort 1 (5-day)) | Vesiculation/Pustulation grade 4, n/N subjects (Day 2, Cohort 1 (5-day)) | Crusting grade 3, n/N subjects (Day 3, Cohort 1 (5-day)) | Crusting grade 4, n/N subjects (Day 3, Cohort 1 (5-day)) | Erosion/Ulceration grade 2, n/N subjects (Day 3, Cohort 1 (5-day)) | Erosion/Ulceration grade 3, n/N subjects (Day 3, Cohort 1 (5-day)) | Erosion/Ulceration grade 4, n/N subjects (Day 3, Cohort 1 (5-day)) | Erythema grade 4, n/N subjects (Day 3, Cohort 1 (5-day)) | Flaking/Scaling grade 4, n/N subjects (Day 3, Cohort 1 (5-day)) | Swelling grade 1, n/N subjects (Day 3, Cohort 1 (5-day)) | Swelling grade 2, n/N subjects (Day 3, Cohort 1 (5-day)) | Swelling grade 3, n/N subjects (Day 3, Cohort 1 (5-day)) | Swelling grade 4, n/N subjects (Day 3, Cohort 1 (5-day))
10/67: Erythema grade 2, n/N subjects (Day 3, Cohort 1 (5-day))
66/67: Erosion/Ulceration grade 0, n/N subjects (Day 3, Cohort 1 (5-day))
15/67: Flaking/Scaling grade 1, n/N subjects (Day 2, Cohort 1 (5-day))
62/67: Crusting grade 0, n/N subjects (Day 1, Cohort 1 (5-day))
